In publication PMC10897476, “Pyridylpiperazine efflux pump inhibitor boosts in vivo antibiotic efficacy against K. pneumoniae” (EMBO Molecular Medicine, 2023):
Marks after values point to notes of the source that are not given here.

Assays:
E. coli BW25113 = test: PyrPip boosting of pyridomycin activity in E. coli (resazurin reduction); format: cell-based, Escherichia coli; details: read-out: PyrPip antibiotic boosting activity EC90; E. coli BW25113 in the presence of 8 μg/mL pyridomycin, resazurin reduction; mean ± SEM
Excerpt: With the aim of developing a PyrPip for in vivo efficacy studies in mice, it was important to optimise the metabolic stability of these efflux pump inhibitors to guarantee sufficient exposure in mice needed for antibiotic boosting. […] To identify metabolically stabilised PyrPips while maintaining AcrB inhibition, it was therefore decided to explore modifications to the quinoline core as well as the introduction of substituents at position 6 of the quinoline ring.

Solubility in PBS pH 7.4 = format: physicochemical; details: PBS pH 7.4, pH 7.4, aqueous buffer, thermodynamic from solid
Description: 0.5 mg of BDM91288 (5) were dissolved either in 1235 μL of PBS pH 7.4 (triplicate) or in 1235 µL of DMSO (triplicate twice). After gently stirring 24 h at room temperature, the solutions were centrifuged for 5 min at 4000 rpm and filtered over 0.45-μm filters (Millex-LH Millipore), excepted one of the DMSO triplicate. Then, 2 µL of each solution was diluted in 998 µL of MeOH were transferred in matrix tubes for LC-MS/MS analysis. The solubility was determined according to the following formula: Solubility (µM) = [AUC(filtered PBS)/AUC(not filtered DMSO)] × 1000.

[1] = Plasma protein binding by equilibrium dialysis; format: in vitro ADME; details: pH 7.4, mouse plasma, read-out: plasma protein binding, Funbound
Description: In vitro plasma protein binding of BDM91288 (5) was measured in mouse plasma using equilibrium dialysis. The RED inserts were placed in a 48-well Teflon Plate (Pierce). Samples were prepared by mixing test compound with plasma at the appropriate concentration to reach a final drug concentration of 10 μM. Triplicate aliquots of plasma containing BDM91288 (5) at a concentration of 10 μM were pipetted to plasma side (red) of the insert and PBS pH 7.4 was placed into the receiver side (white) of the insert. The plate was covered with sealing tape and incubated in a 37 °C orbital shaker water bath for 4 h. Following incubation, samples were prepared in a mixed matrix configuration. Aliquots of samples were pipetted into 96-well plates and precipitation buffer was added to precipitate the proteins. Samples were mixed by vortexing, then centrifuged for 10 min at 12,000 rpm at 4 °C. The supernatant was assayed directly by LC-MS/MS. The following equation was used to calculate the percentage of bound drug fraction (% PPB) using this equilibrium dialysis method: % unbound = ([Buffer chamber]/[Plasma chamber) × 100.

in vitro = format: cell-based; details: mouse, BALB/3T3 cells, read-out: in vitro cytotoxicity CC50
Description: BALB/3T3 cells (CCL-163 from ATCC) were not authenticated. The cell lines were tested negative for mycoplasma contamination (kit mycoalert LONZA). The cytotoxicity of compound BDM91288 (5) was determined on BALB/3T3 cells using live imaging following both Hoechst 33342 and propidium iodide staining. Propidium iodide is a not membrane-permeable DNA stain, allowing to differentiate necroptic, apoptotic and healthy cells based on loss of membrane integrity. […] Final medium volume was 70 µL. 24 h after compounds addition, live imaging was performed using the automated confocal microscope In Cell Analyzer 6000 (GE Healthcare). The cytotoxicity was defined as the percent of cells labelled by propidium iodide in the total cell population (Hoechst labelled cells) using Columbus software (Perkin Elmer). Compounds were tested in triplicate. Carfilzomib (499, 249, […], 61, and 30.6 nM) was used as a positive control in this assay.

[2] = Pharmacokinetics in mice in combination with levofloxacin (plasma, lung after BAL, ELF); format: in vivo, female CD-1 mice; details: female, CD-1, mouse, ELF and plasma, oral; higher than plasma; read-out: ELF exposure (AUC) relative to that measured in the plasma
Description: The concentration of compounds in plasma, lungs and ELF was measured after 2 h, 6 h and 24 h. […] After rodent sacrifice by cervical dislocation, bronchoalveolar lavage (BAL) fluid was collected using a cannula inserted into the trachea. 1 mL of PBS was introduced in lungs via the cannula and the collected BAL fluid was centrifuged (5 min, 3500 rpm, 4 °C). Supernatants were removed, their volume recorded, and samples stored at −80 °C until analysis.
Plasma and BAL fluid samples were thawed on ice.
The concentration of compound in ELF, [cpd]ELF, was calculated as follows: cpdELF=cpdBALxVBAL/VELF where [cpd]BAL is the measured concentration of compound in BAL fluid supernatant, VBAL and VELF, the volume of aspired BAL and the calculated volume of ELF, respectively.
The volume of ELF was calculated as follows: VELF=VBALxUreaBAL/UreaPlasma where VELF represents the apparent volume of ELF, VBAL is the volume of aspired BAL, and [Urea]BAL and [Urea]Plasma are concentration of urea in BAL fluid or plasma, respectively.
Concentrations of urea in plasma and in BAL fluid supernatant was measured using the UREA Nitrogen (BUN) colorimetric detection kit, according to the supplier procedural guidelines (Invitrogen).

[3] = system: K. pneumoniae ATCC 43816 (WT); test: MIC of antibiotics with and without EPI (REMA), WT strain; format: cell-based, Klebsiella pneumoniae; details: K. pneumoniae WT
Description: Overnight cultures were diluted to an OD600 = 0.001 in CAMHB followed by addition of efflux pump inhibitors (EPIs) at a final concentration of 100 µM. […] Plates were incubated at 37 °C for up to 20 h. […] MICs were defined as the concentration that prevented 90% of resazurin turnover compared to the non-treated bacteria.

[4] = system: K. pneumoniae AcrB^V448E RamR^mut; test: MIC of antibiotics with and without EPI (REMA), double mutant; format: cell-based, Klebsiella pneumoniae; details: K. pneumoniae AcrB^V448E RamR^mut
Description: MIC experiments were carried out according to the CLSI guidelines (CLSI [2023]). Overnight cultures were diluted to an OD600 = 0.001 in CAMHB followed by addition of efflux pump inhibitors (EPIs) at a final concentration of 100 µM. […] Plates were incubated at 37 °C for up to 20 h. Bacterial viability was evaluated using the resazurin microtitre assay (REMA) and measured by fluorescence using a Tecan Spaert multimode plate reader (Ex: 530 nm Em: 590 nm). MICs were defined as the concentration that prevented 90% of resazurin turnover compared to the non-treated bacteria.

SMILES | EC90 (E. coli BW25113) [µM] | solubility at 24 h (Solubility in PBS pH 7.4) [µM] | fraction unbound at 4 h, 10 μM [1] | CC50 at 24 h (in vitro) [µM] | Kp [2] | Minimum Inhibitory Concentration ([3]; + 100 µM 1') | Minimum Inhibitory Concentration ([3]; + 100 µM 5) | Minimum Inhibitory Concentration ([3]; + 100 µM PAβN) | MIC ([3]; Klebsiella pneumoniae, ATCC43816, No EPI, read-out: Minimum Inhibitory Concentration) [µg/mL] | Minimum Inhibitory Concentration ([4]; + 100 µM 1') [mg/L] | Minimum Inhibitory Concentration ([4]; + 100 µM 5) [mg/L] | Minimum Inhibitory Concentration ([4]; + 100 µM PAβN) | Minimum Inhibitory Concentration ([4]; No EPI) [mg/L]
Clc1cc2cc(N3CCNCC3)ccc2nc1N1CCNCC1 [compound 5] | 3.3 ± 1.7 | ≥ 1000 | 0.54 | 48 | 2.3 | – | – | – | – | – | – | – | –
C[C@H]1COc2c(N3CCN(C)CC3)c(F)cc3c(=O)c(C(=O)O)cn1c23 [Levofloxacin] | – | – | – | – | – | 0.01^# mg/L | 0.01^# mg/L | 0.02^# mg/L | 0.04 | 1.28 | 1.28 | 0.05^# mg/L | 1.28
